# Experimental data reported in US20230398586A1, “METHOD FOR DECOMPOSING PLANT MATTER” (DANSTAR FERMENT AG, priority 2020, published 2023).
# Assays:
# Assay type in all cases: in vivo
# [1] = test system: apple tree leaves on the orchard floor; experiment: Visual in-field leaf degradation rating per grid, first trial
# From the text: The objective of this trial was to establish the potential of soluble yeast cell wall derivatives to accelerate degradation of apple tree leaves on the orchard floor thereby reducing overwintering potential of apple scab (Venturia inaequalis).
# (§1) At 95% leaf drop, two populations of autumn leaves were collected: 1) yellow leaves (yellow leaves ready to fall; harvested from the treatment trees and placed into wire grids; and 2) brown leaves (brown leaves which have fallen but not yet showing visible degradation collected from the orchard floor and placed into wire grids).
# (§2) The following treatments were tested: 1) untreated control (no application); 2) water control (1000 L water per hectare); 3) urea ([…] per 1000 L per hectare); and 4) soluble yeast cell wall derivatives (Lallemand) (5 kg dry matter/ha; 10 L/ha in 1000 L water per hectare).
# (§3) Treatments were applied to the soil using a non-mechanised back pack sprayer as applicator, in a one meter radius around the tree stem (grids were placed within this circumference).
# (§4) Treatment application times: 1) 95% leaf drop; 2) 95% leaf drop+two weeks; and 3) 95% leaf drop+four weeks.
# All evaluations were done separately on each of the two leaf populations selected at the start of the trial.
# Leaf degradation according to a 0-9 scale, on a per grid estimate, reflecting the surface area which has decomposed; with “0” representing no degradation, “3” being approx. 30% degradation, “6” representing 60% degradation, and “9” complete degradation. […]
# [2] = test system: apple tree leaves on the orchard floor; experiment: Leaf area degradation by leaf area scanner, first trial; details: for Average leaf area reduction: leaf area scanning method
# Procedure: as §1, §2, §3, §4
# Leaf degradation was expressed as the reduction in leaf area (mm^2) based on readings taken with a leaf area scanner (LI-COR, LI-3050C Transparent Belt Conveyor). Samples were placed onto a transparent conveyor belt which allowed the leaf to pass through the scanning head. The accumulated leaf area was determined by passing all leaves of a grid through the scanner and subsequently an average per leaf area (mm 2).
# [3] = test system: Venturia inaequalis ascospores; experiment: Ascospore projection from overwintered leaves (Kollar waterbath protocol); details: M2: one application at 50 kg/ha (30% fallen leaves); untreated control 139
# Procedure: The objective of this trial was to evaluate the efficacy of the soluble yeast cell wall derivatives on their ability to reduce the apple scab inoculum (i.e. ascospores) on overwintering leaves.
# The trial was carried out on a “Gala” apple variety in an orchard severely affected by apple scab.
# The following treatments were tested: M1: untreated control; M2: urea, one application at […]: soluble yeast cell wall derivatives (Lallemand), one application at 5 l/ha (30% fallen leaves); M4: soluble yeast cell wall derivatives, one application at 10 l/ha (30% fallen leaves); M5: soluble yeast cell wall derivatives, two applications at 10 l/ha (first application at beginning of leaf drop and second application at 30% fallen leaves). Each treatment had three replicates.
# One batch of 100 g of leaves per replication was placed in plastic mesh bags with fine mesh on the outdoor ground, in orchard conditions. Treatments were applied in November to the trees using a backpack sprayer (SOLO) at a volume of 1000 L/ha. […]
# The ascospore projection of Venturia inaequalis was evaluated in March. […]
# All meteorological records came from the SudAgroMétéo station on the SudExpé Marsillargues site. […] The results were analyzed using a one-way ANOVA and multiple comparisons of the mean were analysed using a Tukey post-hoc test at 5% threshold. […]
# [4] = brown leaves, 4 weeks after the last application
# [5] = brown leaves, 8 weeks after the last application
# [6] = brown leaves, 10 weeks after the last application
# [7] = yellow leaves, 6 weeks after the last application
# [8] = yellow leaves, 8 weeks after the last application
# [9] = yellow leaves, 10 weeks after the last application
compound,measurement,setting,value
NC(N)=O [urea],"Average leaf degradation score in the sampling grids, degradation category (scale 0-9)",[1]; [4],1.0
same,percentage by which leaf degradation of a treatment exceeded the water control,[1]; [4],(+43%)
same,"Average leaf degradation score in the sampling grids, degradation category (scale 0-9)","[1]; brown leaves, 6 weeks after the last application",2.2 ab
same,"Average leaf degradation score in the sampling grids, degradation category (scale 0-9)",[1]; [5],3.2 ab
same,percentage by which leaf degradation of a treatment exceeded the water control,[1]; [5],(+60%)
same,"Average leaf degradation score in the sampling grids, degradation category (scale 0-9)",[1]; [6],4.3 ab
same,percentage by which leaf degradation of a treatment exceeded the water control,[1]; [6],(+34%)
same,"Average leaf degradation score in the sampling grids, degradation category (scale 0-9)","[1]; brown leaves, 12 weeks after the last application",5.7 ab
same,leaf degradation reached,"[1]; first trial, 12 weeks after the last application, cold weather, lack of rains",≤ 50%
same,"Average leaf degradation score in the sampling grids, degradation category (scale 0-9)","[1]; yellow leaves, 4 weeks after the last application",1.3a
same,"Average leaf degradation score in the sampling grids, degradation category (scale 0-9)",[1]; [7],2.5a
same,percentage by which leaf degradation of a treatment exceeded the water control,[1]; [7],(+39%)
same,"Average leaf degradation score in the sampling grids, degradation category (scale 0-9)",[1]; [8],3.2a
same,percentage by which leaf degradation of a treatment exceeded the water control,[1]; [8],(+14%)
same,"Average leaf degradation score in the sampling grids, degradation category (scale 0-9)",[1]; [9],3.8 a
same,percentage by which leaf degradation of a treatment exceeded the water control,[1]; [9],(+9%)
same,"Average leaf degradation score in the sampling grids, degradation category (scale 0-9)","[1]; yellow leaves, 12 weeks after the last application",5.3ab
same,Leaf area reduction relative to the water control,[2]; brown leaves,(+52%)
same,Average leaf area reduction,[2]; brown leaves,14.1 bc mm^2
same,Leaf area reduction relative to the water control,[2]; yellow leaves,(+10%)
same,Average leaf area reduction,[2]; yellow leaves,15.0 abc mm^2
same,Average concentration of apple scab ascospores discharged in the overwintered leaves,[3],39 ascospores/μl
